Test results reported in patent US20250304542A1, “Fused Heterobicyclic Antiviral Agents” (Enanta Pharmaceuticals, Inc., priority 2024, published 2025).
pEC50: −log10 of the molar value.

Key:
NTCP = molecular target: T1, NTCP (Homo sapiens, UniProt Q14973); assay: HepG2-NTCP preS1 Binding Competition Assay; conditions: HepG2-NTCP cells pre-treated 2 hours, FITC-labeled myristoylated preS1 peptide co-incubated 30 minutes, cell-surface fluorescence; read-out: Cellular EC50
T1 construct: expressed in transfected cells; host or cells: HepG2-NTCP (A3 clone, kept under puromycin)
T1 sequence (Q14973 1-349): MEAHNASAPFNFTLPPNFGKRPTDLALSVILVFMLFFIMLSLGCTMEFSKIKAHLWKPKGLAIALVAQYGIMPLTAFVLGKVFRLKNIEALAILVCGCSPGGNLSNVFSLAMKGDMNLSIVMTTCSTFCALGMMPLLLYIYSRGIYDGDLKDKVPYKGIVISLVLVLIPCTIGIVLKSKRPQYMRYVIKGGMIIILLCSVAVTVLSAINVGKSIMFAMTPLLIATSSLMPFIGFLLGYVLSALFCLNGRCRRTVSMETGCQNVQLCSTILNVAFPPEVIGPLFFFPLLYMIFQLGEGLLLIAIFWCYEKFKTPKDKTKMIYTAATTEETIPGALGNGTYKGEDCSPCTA
Method: Myristoylated preS1 peptide (2-48 aa) conjugated to a C-terminal FITC tag was synthesized to evaluate preS1 binding to NTCP-expressing cells. HepG2-NTCP cells seeded in 384-wells were pre-treated with compounds for 2 hours prior to the addition of FITC-labeled preS1 peptide. After co-incubation for 30 minutes, unbound FITC-preS1 peptide was washed twice with PBS, and the fluorescence of preS1-FITC bound to cell surface was detected by Envision plate reader. EC50 ranges are as follows: A<0.1 μM; B 0.1-1 μM; C>1 μM. A dash (-) indicates the compound was not tested.

HBV = HBV Infection in HepG2-NTCP Cells (HBeAg AlphaLISA); type: cell-based; conditions: Hepatitis B virus, 192 h, read-out: Cellular EC50 (μM)
Method: HepG2-NTCP A3 cells were maintained in DMEM media supplemented with GlutaMAX™, 10% fetal bovine serum, 1% penicillin/streptomycin, and 5 μg/mL puromycin at 37° C. in a humidified atmosphere with 5% CO2 in a collagen-coated tissue culture flask.
HepG2-NTCP cells were seeded in 384 well plate containing 16,000 cells/well two days prior to the infection. On the day of infection, compounds were 3-fold serially diluted in DMSO and pre-incubated with HepG2-NTCP cells for two hours before purified HBV addition. HBV infection was carried out at 2000 GE/cell with 4% PEG, and the final concentration of DMSO is 0.5%. On day one post infection, HBV-containing media was aspirated, cells were washed once with PBS and then maintained in 2.5% DMSO containing media for the remainder of the assay.
Supernatants from infected HepG2-NTCP cells were collected at day 8 post infection, and the amount of viral antigen HBeAg was measured by HBeAg AlphaLISA detection kit (PerkinElmer) following the manufacturer's recommended protocol. Irrespective of readout, compound concentrations that reduce viral product accumulation in supernatants by 50% relative to DMSO controls (EC50) are reported. EC50 ranges are as follows: A<0.1 μM; B 0.1-1 μM; C>1 μM. A dash (-) indicates the compound was not tested.

SMILES	pEC50 (NTCP)	EC50 (HBV)
CC(C)COC(=O)N[C@H](CCc1cc2c(cc1Cl)N(c1ccccc1)C[C@@H](C1CCCCC1)N(C)S2(=O)=O)C(=O)O [Example 15]	6.00 to 7.00	< 0.1 µM
CCCCCOC(=O)N[C@@H](CCc1cc2c(cc1Cl)N(c1ccccc1)C[C@@H](C1CCCCC1)N(C)S2(=O)=O)C(=O)O [Example 16]	6.00 to 7.00	0.1 to 1 µM
CN1[C@H](C2CCCCC2)CN(c2ccccc2)c2cc(Cl)c(CC[C@H](NC(=O)OCc3ccccc3)C(=O)O)cc2S1(=O)=O [Example 22]	6.00 to 7.00	0.1 to 1 µM
CC(C)CS(=O)(=O)N[C@H](CCc1cc2c(cc1Cl)N(c1ccccc1)C[C@@H](C1CCCCC1)N(C)S2(=O)=O)C(=O)O [Example 29]	> 7.00	0.1 to 1 µM
CCCCN(C)C(=O)C(=O)N[C@@H](CCc1cc2c(cc1Cl)N(c1ccccc1)C[C@@H](C1CCCCC1)N(C)S2(=O)=O)C(=O)O [Example 32, (S)-2-(2-(butyl(methyl)amino)-2-oxoacetamido)-4-((R)-7-chloro-3-cyclohexyl-2-methyl-1,1-dioxido-5-phenyl-2,3,4,5-tetrahydrobenzo[f][1,2,5]thiadiazepin-8-yl)butanoic acid]	> 7.00	< 0.1 µM
CCCCN(C)C(=O)C(=O)N[C@H](CCc1cc2c(cc1Cl)N(c1ccccc1)C[C@@H](C1CCCCC1)N(C)S2(=O)=O)C(=O)O [Example 33]	6.00 to 7.00	0.1 to 1 µM
CCCCNC(=O)C(=O)N[C@@H](CCc1cc2c(cc1Cl)N(c1ccccc1)C[C@@H](C1CCCCC1)N(C)S2(=O)=O)C(=O)O [Example 34]	> 7.00	< 0.1 µM
CNc1cc2c(cc1C(=O)N[C@H](C(=O)O)c1ccc(C(F)(F)F)cc1)S(=O)(=O)N(C)[C@H](C1CCCCC1)CN2c1ccccc1 [Example 39, (S)-2-((R)-3-cyclohexyl-2-methyl-7-(methylamino)-1,1-dioxido-5-phenyl-2,3,4,5-tetrahydrobenzo[f][1,2,5]thiadiazepine-8-carboxamido)-2-(4-(trifluoromethyl)phenyl)acetic acid]	> 7.00	< 0.1 µM
CNc1cc2c(cc1C(=O)N[C@H](C(=O)O)c1ccsc1)S(=O)(=O)N(C)[C@H](C1CCCCC1)CN2c1ccccc1 [Example 40]	> 7.00	0.1 to 1 µM
CNc1cc2c(cc1C(=O)N[C@H](C(=O)O)C1CCCCC1)S(=O)(=O)N(C)[C@H](C1CCCCC1)CN2c1ccccc1 [Example 41]	> 7.00	< 0.1 µM
CNc1cc2c(cc1C(=O)N[C@H](C(=O)O)c1cccc(Cl)c1)S(=O)(=O)N(C)[C@H](C1CCCCC1)CN2c1ccccc1 [Example 45]	> 7.00	< 0.1 µM
